Data from patent publication US5798379A, “UCS1025 compounds” (Kyowa Hakko Kogyo Co., Ltd., priority 1996, dated 1998).
In brackets after ≈: the same amount, converted by molar mass.

Legend:
[1] = system: Bacillus subtilis No. 10707; assay: Antibacterial activity by agar dilution method; type: cell-based; conditions: pH 7, read-out: Minimum inhibitory concentration
Method: (§1) Antibacterial activity of UCS1025A and UCS1025B against various bacteria were measured.
(§2) The antibacterial activity was measured by an agar dilution method on media (pH 7) -composed of 3 g/L of Bacto-tryptone (manufactured by Difco), 3 g/L of meat extract, 1 g/L of yeast extract, 1 g/L of glucose and 16 g/L of agar. The antibacterial activity was shown by minimum inhibitory concentration (MIC).

[2] = system: Enterococcus hirae ATCC 10541; assay: Antibacterial activity by agar dilution method; type: cell-based; conditions: ATCC10541, pH 7, read-out: Minimum inhibitory concentration
Method: as §1, §2

[3] = system: Proteus vulgaris ATCC 6897; assay: Antibacterial activity by agar dilution method; type: cell-based; conditions: ATCC6897, pH 7, read-out: Minimum inhibitory concentration
Method: as §1, §2

[4] = system: Staphylococcus aureus ATCC 6538P; assay: Antibacterial activity by agar dilution method; type: cell-based; conditions: ATCC6538P, pH 7, read-out: Minimum inhibitory concentration
Method: as §1, §2

[5] = system: human mammary carcinoma MCF-7; assay: Growth inhibition against human mammary carcinoma MCF-7 cells (MTT); type: cell-based; conditions: MCF7, 72 hours
Method: (§3) Growth inhibition against human mammary carcinoma MCF-7, human cystocarcinoma T24, human epidermoid carcinoma A431 and human renal carcinoma ACHN cells:
(§4) Respective cells were dispensed into a 96 well microtiter plate (Nunc #167008) in 1×10^3 cells/well portions in the case of MCF-7 and T24 or in 1.5×lO^3 cells/well portions in the case of A431 and ACHN and cultured at 37° C. for 24 hours in a 5% carbon dioxide incubator. Thereafter, 30 mM of UCS1025A and 30 mM of UCS1025B were each serially diluted and added to the wells in 50 μl portions. The final concentration of each solution becomes 100 μM at the maximum at this stage. They were cultured again at 37° C. for 72 hours in the 5% carbon dioxide incubator. Five hours prior to the completion of the culturing, MTT [3-(4,5-dimethylthiazo-2-yl)-2,5-diphenyltetrazolium bromide, Sigma] which had been dissolved in the culture to a final concentration of 1 mg/ml was dispensed into the plate in 50 μl/well portions. After completion of the culturing, DMSO was dispensed in 150 μl/well portions, and the resulting plate was stirred vigorously using a plate mixer to dissolve MTT-formazan crystals completely. Thereafter, absorbance at 550 nm was measured using a microplate spectrophotometer M-SPmax250 (manufactured by Wako Pure Chemical Industries). The cell growth inhibition activity was shown by the 50% inhibitory concentration IC50

human cystocarcinoma T24 = assay: Growth inhibition against human cystocarcinoma T24 cells (MTT); type: cell-based; conditions: T-24, 72 hours
Method: as §3, §4

[6] = system: human epidermoid carcinoma A431; assay: Growth inhibition against human epidermoid carcinoma A431 cells (MTT); type: cell-based; conditions: A-431, 72 hours
Method: as §3, §4

[7] = system: human renal carcinoma ACHN; assay: Growth inhibition against human renal carcinoma ACHN cells (MTT); type: cell-based; conditions: 72 hours
Method: as §3, §4

Solubility = type: physicochemical
[8] = in methanol, ethyl acetate, chloroform, dimethylsulfoxide (DMSO)

| SMILES | MIC [1] [µg/mL] | MIC [2] [µg/mL] | MIC [3] [µg/mL] | MIC [4] [µg/mL] | IC50 [5] [µM] | IC50 (human cystocarcinoma T24) [µM] | IC50 [6] [µM] | IC50 [7] [µM] | Solubility (Solubility; in hexane) | Solubility (Solubility; [8]) |
| --- | --- | --- | --- | --- | --- | --- | --- | --- | --- | --- |
| CC1C=CC2CCCCC2C1C(=O)C1(O)C(=O)N2CCC3C(=O)OC1C32O (centres unmarked) [UCS1025B] | 83 (≈ 221 µM) | 42 (≈ 112 µM) | 83 (≈ 221 µM) | 42 (≈ 112 µM) | > 100 | > 100 | > 100 | > 100 | hardly soluble | Soluble |
| CC1C=CC2CCCCC2C1C(=O)C1C(=O)N2CCC3C(=O)OC1C32O (centres unmarked) [UCS1025A] | 1.3 (≈ 3.62 µM) | 1.3 (≈ 3.62 µM) | 5.2 (≈ 14.5 µM) | 1.3 (≈ 3.62 µM) | 21 | 51 | 55 | 58 | hardly soluble | Soluble |
